In US6906198B1, “Antipicornaviral compounds, their preparation and use” (Agouron Pharmaceuticals, Inc., priority 1998, dated 2005):

test: Cytotoxicity in mock-infected H1-HeLa cells (antirhinoviral assay, XTT); type: cell-based; details: human, 50% cytotoxic dose
Description: H1-HeLa cells were infected with HRV-14 at a multiplicity of infection (m.o.i.) of 0.13 (virus particles/cell) or mock-infected with medium only. Infected or mock-infected cells were resuspended at 8×10^5 cells per mL, and incubated with appropriate concentrations of the compounds to be tested. Two days later, XTT/PMS was added to test plates and the amount of formazan produced was quantified spectrophotometrically at 450/650 nm. The EC50 value was calculated as the concentration of compound that increased the percentage of formazan production in compound-treated, virus-infected cells to 50% of that produced by compound-free, mock-infected cells. The 50% cytotoxic dose (CC50) was calculated as the concentration of compound that decreased the percentage of formazan produced in compound-treated, mock-infected cells to 50% of that produced by compound-free, mock-infected cells. The therapeutic index (TI) was calculated by dividing the CC50 value by the EC50 value.
All strains of human rhinovirus (HRV) for use in this assay were purchased from American Type Culture Collection (ATCC), except for HRV serotype-14 (produced from the infectious cDNA clone constructed by Dr. Robert Rueckert, Institute for Molecular Virology, University of Wisconsin, Madison, Wis.). HRV stocks were propagated and viral assays were performed in H1-HeLa cells (ATCC). Cells were grown in minimal essential medium with 10% fetal bovine serum, available from Life Technologies (Gaithersburg, Md.).

`CCOC(=O)/C=C/[C@H](CCC(N)=O)NC(=O)[C@H](Cc1ccccc1)NC(=O)[C@H](CC(C)C)NC(=O)c1ccno1` [(A-2), Ethyl-3-((Isoxazole-5′-carbonyl)-L-Leu-L-Phe-L-Gin)-E-Propenoate] and `CCOC(=O)/C=C/[C@H](CCC(N)=O)NC(=O)[C@H](Cc1ccc(F)cc1)NC(=O)[C@@H](NC(=O)c1cc(C)on1)C(C)C` [(A-6), Ethyl-3-[(5′-Methylisoxazole-3′-carbonyl)-L-Val-L-(4-F-Phe)-L-Gln]-E-Propenoate] cannot be ordered by CC50 at 2 days: > 100 µM for the first, > 100 µM for the second.

`CCOC(=O)/C=C/[C@H](CCC(N)=O)NC(=O)[C@H](Cc1ccc(C)cc1)NC(=O)[C@@H](NC(=O)c1cc(C)on1)C(C)(C)C` [(A-3), Ethyl-3-((5′-Methylisoxazole-3′-carbonyl)-L-α-(t-Butyl-Gly)-L-(4-Me-Phe)-L-Gln)-E-Propenoate] and `CCOC(=O)/C=C/[C@H](CCC(N)=O)NC(=O)[C@H](Cc1ccc(F)cc1)NC(=O)[C@@H](NC(=O)c1cc(C)on1)C(C)(C)C` [(A-4), Ethyl-3-((5′-Methylisoxazole-3′-carbonyl)-L-α-(t-Butyl-Gly)-L-(4-F-Phe)-L-Gln)-E-Propenoate] cannot be ordered by CC50 at 2 days: > 10 µM for the first, > 100 µM for the second.

`CCOC(=O)/C=C/[C@H](CCC(N)=O)NC(=O)[C@H](Cc1ccc(F)cc1)N(C)C(=O)[C@H](Cc1c[nH]cn1)NC(=O)c1cc(C)on1` [(A-9), Ethyl-3-{(5′-Methylisoxazole-3′-carbonyl)-L-His-NCH3-L-(4-F-Phe)-L-Gln}-E-Propenoate] and `CCOC(=O)/C=C/[C@H](CCC(N)=O)NC(=O)[C@H](Cc1ccc(F)cc1)N(C)C(=O)[C@H](CC(C)C)NC(=O)c1cc(C)on1` [(A-12), Ethyl-3-{(5′-Methylisoxazole-3′-carbonyl)-L-Leu-NCH3-L-(4-F-Phe)-L-Gln}-E-Propenoate] cannot be ordered by CC50 at 2 days: > 100 µM for the first, > 100 µM for the second.

`CCOC(=O)/C=C/[C@H](CCC(N)=O)NC(=O)[C@H](Cc1ccc(F)cc1)N(C)C(=O)[C@H](Cc1ccc2ccccc2c1)NC(=O)c1cc(C)on1` [(A-11), Ethyl-3-{(5′-Methylisoxazole-3′-carbonyl)-L-(2-Naphth)-NCH3-L-(4-F-Phe)-L-Gln}-E-Propenoate] and `CCOC(=O)/C=C/[C@H](CCC(N)=O)NC(=O)[C@H](Cc1ccc(F)cc1)N(C)C(=O)[C@H](Cc1cccc2ccccc12)NC(=O)c1cc(C)on1` [(A-13), Ethyl-3-{(5′-Methylisoxazole-3′-carbonyl)-L-(1-Naphth)-NCH3-L-(4-F-Phe)-L-Gln}-E-Propenoate] cannot be ordered by CC50 at 2 days: 50 µM for the first, > 10 µM for the second.

`CCOC(=O)/C=C/[C@H](C[C@@H]1CCNC1=O)NC(=O)[C@H](Cc1ccccc1)NC(=O)[C@H](CC(C)C)NC(=O)OCc1ccccc1` [(A-24), Ethyl-3-{Cbz-L-Leu-L-Phe-L-((S)-Pyrrol-Ala)}-E-Propenoate] and `CCOC(=O)/C=C/[C@H](C[C@H]1CCNC1=O)NC(=O)[C@H](Cc1ccccc1)NC(=O)[C@H](CC(C)C)NC(=O)OCc1ccccc1` [(A-27), Ethyl-3-{Cbz-L-Leu-L-Phe-L-((R)-Pyrrol-Ala)}-E-Propenoate] cannot be ordered by CC50 at 2 days: > 100 µM for the first, > 100 µM for the second.

`CCOC(=O)/C=C/[C@H](C[C@@H]1CCNC1=O)NC(=O)[C@H](Cc1ccccc1)NC(=O)[C@@H](NC(=O)OCc1ccccc1)C(C)C` [(A-25), Ethyl-3-{Cbz-L-Val-L-Phe-L-((S)-Pyrrol-Ala)}-E-Propenoate] and `CCOC(=O)/C=C/[C@H](C[C@@H]1CCCNC1=O)NC(=O)[C@H](Cc1ccccc1)NC(=O)[C@H](CC(C)C)NC(=O)OCc1ccccc1` [(A-26), Ethyl-3-{Cbz-L-Leu-L-Phe-L-((S)-Piper-Ala)}-E-Propenoate] cannot be ordered by CC50 at 2 days: > 100 µM for the first, > 100 µM for the second.

In the case of `Cc1cc(C(=O)N[C@H](C(=O)C[C@@H](Cc2ccc(F)cc2)C(=O)N[C@H](/C=C2\CCOC2=O)C[C@@H]2CCNC2=O)C(C)C)no1` [(B-3), 2-{(5′-Methylisoxazole-3′-carbonyl)-L-ValΨ(COCH2)-L-(4-F-Phe)-L-((S)-Pyrrol-Ala)}-E-(α-Vinyl-γ-Butyrolactone)], the CC50 at 2 days was > 100 µM.
